Molecular target: T1, Q46 protein aggregates (Homo sapiens, UniProt P42858, INS38QQQQQQQQQQQQQQQQQQQQQQQQQ)
T1 construct: fused on or other part: GST at the N-terminus, cut off by thrombin before the test to start aggregation
Assay: Q46 Radioligand Binding Assay (RBA)
Conditions: displacement of 10 nM [3H3]MK-3328 from 5 μM aggregated Q46 protein, 60 minutes at 37° C.
Experimental: Q46 Radioligand Binding Assay
For radioligand binding assays (RBA) GST-Q46 protein was generated based on a previous publication (Scherzinger et al. Cell, Vol. 90, 549-558, Aug. 8, 1997). For experiments 33 μM GST-Q46 was incubated with 150 μg/mL thrombin in assay buffer (150 mM NaCl, 50 mM Tris pH 8.0) and 2 mM CaCl2 for 16 hours at 37° C. Aggregated Q46 was pelleted by centrifugation for 5 minutes at 13,000 rpm in a bench top centrifuge and re-dissolved in the same volume of assay buffer. Test compounds were prepared by titration in DMSO at 11 concentrations from 33 μM to 1 nM. For the RBA, Q46 protein aggregates and test compounds were pre-incubated in assay buffer for 20 minutes at room temperature, in 140 μL/well in a 96-well plate (pp, round bottom). Then, ligand was added in 10 μL/well and incubated for 60 minutes at 37° C. Final assay concentrations were […] test compound, 5 μM Q46 protein (equivalent monomer concentration) and 10 nM ligand [^3H3]MK-3328 (Harrision et al., ACS Med. Chem. Lett., 2 (2011), pp 498-502). Samples were transferred onto GF/B filter plates and washed 2× with 200 μL PBS using a Filtermate Harvester. After drying filter plates for 1 hour at 37° C., the back of the plates was sealed with foil and 30 μl/well scintillation fluid (Packard MicroScint 40) was added, incubated for […] 15 minutes in the dark and counted in a TopCount reader. For analysis, replicate data from independent assay plates were normalized towards 0% and 100% inhibition using control wells of vehicle (0% inhibition) and 3 μM unlabelled MK-3328 (100% inhibition). IC50 values were determined with a sigmoidal inhibition model with four variables (top, bottom, slope, IC50) in a global fit using the normalized replicate data.

T1 sequence (P42858 with tags, fused parts or gaps with the stated changes): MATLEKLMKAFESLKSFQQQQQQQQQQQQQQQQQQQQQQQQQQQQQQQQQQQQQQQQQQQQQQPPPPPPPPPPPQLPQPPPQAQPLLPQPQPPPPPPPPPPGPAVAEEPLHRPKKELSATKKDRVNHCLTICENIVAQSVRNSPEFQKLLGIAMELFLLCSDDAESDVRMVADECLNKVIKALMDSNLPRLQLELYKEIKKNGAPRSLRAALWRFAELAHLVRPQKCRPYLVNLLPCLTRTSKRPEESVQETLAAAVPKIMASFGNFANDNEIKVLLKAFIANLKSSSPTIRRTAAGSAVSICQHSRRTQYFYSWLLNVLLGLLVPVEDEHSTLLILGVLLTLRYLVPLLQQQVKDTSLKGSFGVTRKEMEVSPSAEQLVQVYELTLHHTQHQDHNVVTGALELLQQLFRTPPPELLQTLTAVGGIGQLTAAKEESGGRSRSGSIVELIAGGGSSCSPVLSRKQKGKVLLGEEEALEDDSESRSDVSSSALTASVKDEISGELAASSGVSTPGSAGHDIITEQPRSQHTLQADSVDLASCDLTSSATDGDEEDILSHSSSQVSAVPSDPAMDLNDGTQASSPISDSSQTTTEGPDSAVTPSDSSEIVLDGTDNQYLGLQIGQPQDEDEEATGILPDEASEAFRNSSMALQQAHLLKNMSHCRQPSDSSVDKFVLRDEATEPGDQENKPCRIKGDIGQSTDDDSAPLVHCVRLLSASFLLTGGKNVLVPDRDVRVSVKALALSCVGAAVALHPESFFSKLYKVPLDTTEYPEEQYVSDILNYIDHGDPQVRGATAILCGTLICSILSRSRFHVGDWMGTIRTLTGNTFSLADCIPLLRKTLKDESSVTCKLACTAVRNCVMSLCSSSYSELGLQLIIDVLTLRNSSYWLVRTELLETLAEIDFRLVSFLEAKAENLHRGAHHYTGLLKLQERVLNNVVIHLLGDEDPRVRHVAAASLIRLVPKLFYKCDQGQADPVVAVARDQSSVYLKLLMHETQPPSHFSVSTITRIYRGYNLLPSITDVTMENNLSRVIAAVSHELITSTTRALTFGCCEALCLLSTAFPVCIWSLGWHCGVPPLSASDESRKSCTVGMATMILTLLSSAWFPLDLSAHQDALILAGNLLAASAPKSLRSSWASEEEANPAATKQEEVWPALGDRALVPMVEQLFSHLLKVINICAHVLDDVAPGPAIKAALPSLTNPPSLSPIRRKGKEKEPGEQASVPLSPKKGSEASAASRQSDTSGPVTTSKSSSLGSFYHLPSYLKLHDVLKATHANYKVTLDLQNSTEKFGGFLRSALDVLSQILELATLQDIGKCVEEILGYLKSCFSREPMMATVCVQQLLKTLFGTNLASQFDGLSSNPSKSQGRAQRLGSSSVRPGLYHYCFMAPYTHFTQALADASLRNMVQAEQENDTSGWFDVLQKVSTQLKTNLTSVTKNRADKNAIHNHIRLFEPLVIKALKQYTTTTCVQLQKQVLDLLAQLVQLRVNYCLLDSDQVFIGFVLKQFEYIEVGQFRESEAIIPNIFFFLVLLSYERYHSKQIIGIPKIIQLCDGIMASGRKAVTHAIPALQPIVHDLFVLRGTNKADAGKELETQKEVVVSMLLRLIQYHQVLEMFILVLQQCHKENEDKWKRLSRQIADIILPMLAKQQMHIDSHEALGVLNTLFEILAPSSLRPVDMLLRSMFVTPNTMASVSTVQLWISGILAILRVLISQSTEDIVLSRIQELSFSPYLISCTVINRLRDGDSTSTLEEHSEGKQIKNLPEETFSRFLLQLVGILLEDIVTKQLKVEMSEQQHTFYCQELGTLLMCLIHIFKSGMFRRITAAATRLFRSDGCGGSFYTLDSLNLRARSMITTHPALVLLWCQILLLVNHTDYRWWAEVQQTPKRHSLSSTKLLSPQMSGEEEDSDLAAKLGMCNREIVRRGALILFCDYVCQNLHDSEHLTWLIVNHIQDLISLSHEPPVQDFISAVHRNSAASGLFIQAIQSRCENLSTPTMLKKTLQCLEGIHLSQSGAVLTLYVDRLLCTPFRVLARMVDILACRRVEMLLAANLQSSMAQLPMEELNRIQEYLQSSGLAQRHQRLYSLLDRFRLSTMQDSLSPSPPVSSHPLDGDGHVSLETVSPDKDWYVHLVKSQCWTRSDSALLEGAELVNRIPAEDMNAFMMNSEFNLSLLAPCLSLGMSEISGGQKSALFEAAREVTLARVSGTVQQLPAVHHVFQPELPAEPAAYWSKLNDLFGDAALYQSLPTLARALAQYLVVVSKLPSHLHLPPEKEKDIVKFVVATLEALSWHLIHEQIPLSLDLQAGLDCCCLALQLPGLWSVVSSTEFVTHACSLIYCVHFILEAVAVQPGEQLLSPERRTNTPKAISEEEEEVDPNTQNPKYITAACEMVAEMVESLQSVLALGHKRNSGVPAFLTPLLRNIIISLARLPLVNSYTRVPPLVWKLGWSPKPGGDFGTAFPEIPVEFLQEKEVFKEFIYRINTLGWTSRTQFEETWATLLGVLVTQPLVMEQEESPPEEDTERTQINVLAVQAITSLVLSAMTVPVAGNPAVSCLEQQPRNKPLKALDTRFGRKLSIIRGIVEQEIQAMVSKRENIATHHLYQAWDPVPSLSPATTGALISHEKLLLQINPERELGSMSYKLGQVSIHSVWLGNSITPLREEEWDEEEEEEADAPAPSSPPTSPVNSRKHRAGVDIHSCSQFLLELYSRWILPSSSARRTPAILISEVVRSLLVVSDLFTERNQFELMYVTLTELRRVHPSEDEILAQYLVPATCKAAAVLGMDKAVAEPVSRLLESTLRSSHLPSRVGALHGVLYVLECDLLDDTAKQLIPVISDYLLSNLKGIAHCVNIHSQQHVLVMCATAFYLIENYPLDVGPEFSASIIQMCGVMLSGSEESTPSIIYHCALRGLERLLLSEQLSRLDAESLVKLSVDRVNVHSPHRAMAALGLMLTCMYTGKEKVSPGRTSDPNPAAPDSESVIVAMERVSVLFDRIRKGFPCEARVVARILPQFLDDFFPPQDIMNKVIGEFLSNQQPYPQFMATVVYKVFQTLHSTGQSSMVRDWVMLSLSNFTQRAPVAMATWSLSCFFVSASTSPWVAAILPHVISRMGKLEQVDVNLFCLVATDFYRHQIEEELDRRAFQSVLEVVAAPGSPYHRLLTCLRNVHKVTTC

Question: For `CNc1c(-c2cccc(OCc3cccnc3)c2)nc2cc(C#N)ccn12` [3-(methylamino)-2-[3-(pyridin-3-ylmethoxy)phenyl]imidazo[1,2-a]pyridine-7-carbonitrile], which IC50 is on record?
Answer: < 100 nM

Question: With `C#CCOc1ccc(-c2nc3cc(C#N)ccn3c2NC)cc1` [3-(methylamino)-2-[4-(prop-2-yn-1-yloxy)phenyl]imidazo[1,2-a]pyridine-7-carbonitrile] as the compound, how does the IC50 read?
Answer: 100 to 500 nM

Question: Which IC50 does the source give for `CNc1c(-c2ccc(-c3cnccn3)cc2)nc2cc(C#N)ccn12` [3-(methylamino)-2-[4-(pyrazin-2-yl)phenyl]imidazo[1,2-a]pyridine-7-carbonitrile] here?
Answer: < 100 nM

Question: With `CNc1c(-c2ccc(OCc3cccnc3)cc2)nc2cc(C#N)ccn12` [3-(methylamino)-2-[4-(pyridin-3-ylmethoxy)phenyl]imidazo[1,2-a]pyridine-7-carbonitrile] as the compound, how does the IC50 read?
Answer: < 100 nM

Question: With `CNc1c(-c2cc3cc(OCc4cccnc4)ccc3o2)nc2cc(C#N)ccn12` [3-(methylamino)-2-[5-(pyridin-3-ylmethoxy)-1-benzofuran-2-yl]imidazo[1,2-a]pyridine-7-carbonitrile] as the compound, how does the IC50 read?
Answer: < 100 nM

Question: For `CNc1c(-c2cccc(COCc3cccnc3)c2)nc2cc(C#N)ccn12` [3-(methylamino)-2-{3-[(pyridin-3-ylmethoxy)methyl]phenyl}imidazo[1,2-a]pyridine-7-carbonitrile], which IC50 is on record?
Answer: 100 to 500 nM

Question: Which IC50 does the source give for `CNc1c(-c2ccc(COCc3cccnc3)cc2)nc2cc(C#N)ccn12` [3-(methylamino)-2-{4-[(pyridin-3-ylmethoxy)methyl]phenyl}imidazo[1,2-a]pyridine-7-carbonitrile] here?
Answer: 100 to 500 nM

Question: For `COc1ccc2oc(-c3nc4cc(C#N)ccn4c3CN(C)C)cc2c1` [3-[(dimethylamino)methyl]-2-(5-methoxy-1-benzofuran-2-yl)imidazo[1,2-a]pyridine-7-carbonitrile], which IC50 is on record?
Answer: 100 to 500 nM

Question: For `COc1ccc2oc(-c3nc4cc(C#N)ccn4c3N)cc2c1` [3-amino-2-(5-methoxy-1-benzofuran-2-yl)imidazo[1,2-a]pyridine-7-carbonitrile], which IC50 is on record?
Answer: < 100 nM

Question: With `N#Cc1ccn2c(N)c(-c3cc4cc(OCCF)ccc4o3)nc2c1` [3-amino-2-[5-(2-fluoroethoxy)-1-benzofuran-2-yl]imidazo[1,2-a]pyridine-7-carbonitrile] as the compound, how does the IC50 read?
Answer: < 100 nM

Question: Which IC50 does the source give for `COc1ccc2oc(-c3nc4cc(C#N)ccn4c3NCCN(C)C)cc2c1` [3-{[2-(dimethylamino)ethyl]amino}-2-(5-methoxy-1-benzofuran-2-yl)imidazo[1,2-a]pyridine-7-carbonitrile] here?
Answer: 100 to 500 nM

Question: Which IC50 does the source give for `CNc1c(-c2cc3cc(OC)ccc3o2)nc2ccc(F)cn12` [6-fluoro-2-(5-methoxy-1-benzofuran-2-yl)-N-methylimidazo[1,2-a]pyridin-3-amine] here?
Answer: < 100 nM

Question: With `CNc1c(-c2cc3cc(OC)ccc3o2)nc2cc(CN)ccn12` [7-(aminomethyl)-2-(5-methoxy-1-benzofuran-2-yl)-N-methylimidazo[1,2-a]pyridin-3-amine] as the compound, how does the IC50 read?
Answer: 100 to 500 nM

Question: For `CNc1c(-c2cc3cc(OC)ccc3o2)nc2cc(Br)ccn12` [7-bromo-2-(5-methoxy-1-benzofuran-2-yl)-N-methylimidazo[1,2-a]pyridin-3-amine], which IC50 is on record?
Answer: < 100 nM

Question: Which IC50 does the source give for `CNc1c(-c2cc3cc(OC)ccc3o2)nc2cc(Cl)ccn12` [7-chloro-2-(5-methoxy-1-benzofuran-2-yl)-N-methylimidazo[1,2-a]pyridin-3-amine] here?
Answer: < 100 nM

Question: For `C#Cc1ccn2c(NC)c(-c3cc4cc(OC)ccc4o3)nc2c1` [7-ethynyl-2-(5-methoxy-1-benzofuran-2-yl)-N-methylimidazo[1,2-a]pyridin-3-amine], which IC50 is on record?
Answer: < 100 nM

Question: With `CNc1c(-c2cc3cc(OC)ccc3o2)nc2cc(F)ccn12` [7-fluoro-2-(5-methoxy-1-benzofuran-2-yl)-N-methylimidazo[1,2-a]pyridin-3-amine] as the compound, how does the IC50 read?
Answer: < 100 nM

Question: For `CNc1c(-c2cc3cc(OC)ccc3o2)nc2cc(OC)ccn12` [7-methoxy-2-(5-methoxy-1-benzofuran-2-yl)-N-methylimidazo[1,2-a]pyridin-3-amine], which IC50 is on record?
Answer: < 100 nM

Question: For `CNc1c(-c2cc3c(o2)CCN(C(=O)OC(C)(C)C)C3)nc2cc(C#N)ccn12` [tert-butyl 2-[7-cyano-3-(methylamino)imidazo[1,2-a]pyridin-2-yl]-4H,5H,6H,7H-furo[3,2-c]pyridine-5-carboxylate], which IC50 is on record?
Answer: 100 to 500 nM

Test system: recombinant tau and amyloid β1-42 (Aβ1-42) aggregates
Assay: not given
Conditions: higher affinity for the tau aggregates than Aβ1-42 aggregates; cited from earlier work

Question: Which “ratio of Kd values (tau aggregates vs Aβ1-42 aggregates)” value does the source give for `CN(C)c1ccc(/C=C/c2nc3ccc(I)cc3[nH]2)cc1` [SBIM-3, 4-[(E)-2-(6-iodo-1H-benzimidazol-2-yl)ethenyl]-N,N-dimethylaniline] here?
Answer: 2.73

Test system: NFT in sections of AD brain tissue
Assay: not given
Conditions: in vitro autoradiography and fluorescent staining; cited from earlier work

Question: Which “binding to NFT in sections of AD brain tissue” value does the source give for `CN(C)c1ccc(/C=C/c2nc3ccc(I)cc3[nH]2)cc1` [SBIM-3, 4-[(E)-2-(6-iodo-1H-benzimidazol-2-yl)ethenyl]-N,N-dimethylaniline] here?
Answer: bound NFT
